Experimental data published in US20060160789A1 (priority 2005, published 2006).
Values joined by “and” are separate entries in the source; they are usually repeats but may differ in a detail not shown here. Equal values may be shown once.

Tested on: patients hospitalized for a laparotomy in the context of digestive surgery
Details: human, in vivo

## CN1CCOC(c2ccccc2)c2ccccc2C1 (centres unmarked) [nefopam]
  Morphine PCA over 24 h: 0.255 mg/kg and 0.454 mg/kg
  Morphine titration (mg): 7.5 mg and 9 mg
  Morphine titration (mg/kg): 0.082 mg/kg and 0.130 mg/kg
  Total morphine over 24 h: 0.365 mg/kg and 0.649 mg/kg
  quantity of morphine titration administered for group 4 versus quantity expected if nefopam only had analgesic effects: smaller than that which would have had to be administered to the group if nefopam only had analgesic effects
